{"source": "BindingDB's records for doi:10.1111/cbdd.12779", "about": "(Ferdowsi University of Mashhad, 2016)", "note": "Several values for one entry are separate records, joined by “and”; a condition that tells them apart may be missing. Equal entries are not always repeated."}
{"molecular_target": "T1, Seed linoleate 13S-lipoxygenase-1 (Glycine max, UniProt P08170)", "T1 sequence (P08170 whole entry)": "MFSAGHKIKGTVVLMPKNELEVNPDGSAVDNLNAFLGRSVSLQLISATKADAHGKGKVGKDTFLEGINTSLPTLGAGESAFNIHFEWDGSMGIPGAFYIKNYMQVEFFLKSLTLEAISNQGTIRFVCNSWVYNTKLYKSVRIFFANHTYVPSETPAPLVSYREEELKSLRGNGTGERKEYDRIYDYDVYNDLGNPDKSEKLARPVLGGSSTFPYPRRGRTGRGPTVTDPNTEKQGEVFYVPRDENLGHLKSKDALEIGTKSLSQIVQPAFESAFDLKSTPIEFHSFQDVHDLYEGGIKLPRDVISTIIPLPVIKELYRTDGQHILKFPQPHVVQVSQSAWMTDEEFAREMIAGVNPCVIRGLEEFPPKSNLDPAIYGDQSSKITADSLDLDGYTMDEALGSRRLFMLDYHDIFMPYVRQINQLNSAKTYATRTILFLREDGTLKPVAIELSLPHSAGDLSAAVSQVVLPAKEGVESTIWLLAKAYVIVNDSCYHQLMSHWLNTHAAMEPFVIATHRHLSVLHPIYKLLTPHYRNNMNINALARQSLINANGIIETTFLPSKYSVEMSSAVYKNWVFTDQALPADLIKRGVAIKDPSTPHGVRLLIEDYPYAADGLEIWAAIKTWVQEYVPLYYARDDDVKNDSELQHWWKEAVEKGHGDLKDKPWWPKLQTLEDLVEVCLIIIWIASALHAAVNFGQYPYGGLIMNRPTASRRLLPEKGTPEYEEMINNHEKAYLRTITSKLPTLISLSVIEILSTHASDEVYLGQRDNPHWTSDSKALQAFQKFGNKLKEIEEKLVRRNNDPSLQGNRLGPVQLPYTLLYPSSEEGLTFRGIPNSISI", "experiment": "Lipo-oxygenase Inhibitory Assay", "settings": "pH 7; 25 °C", "description": "Solution A was 50 mm DMAB in an 100 mm phosphate buffer (pH 7.0). Solution B was a mixture of 10 mm MBTH (3 mL) and hemoglobin (5 mg/mL, 3 mL) in 50 mm phosphatebuffer at pH 5.0 (25 mL). A linoleic acid solution was prepared by mixing 5 mg of linoleic acid with 50 mg Tween-20 in 3 mL water and then diluted with KOH 100 mmto a final volume of 5 mL. In the standard assay, the sample in ethanol (25 uL), SLO (EC 1,13,11,12; 4000 units/mL; 25 uL) and phosphate buffer, pH 7.0 (50 mm; 900 uL), were mixed in a test-tube and preincubation was carried out for 5 min at room temperature. A control test was done with the same volume of ethanol. Afterthe preincubation, linoleic acid solution (50 uL) was added to start the peroxidation reaction, and, 7 min later, solution A (270 uL) and then solution B (130 uL) were added to start the color formation. Further, 5 min later, 200 uL of a 2% SDS solution was added to terminate the reaction."}
{"molecule": "C=CCc1cccc(OC)c1OC", "note": "[1,2-dimethoxy-3-(prop-2-en-1-yl)benzene (3)]", "IC50": "128 µM"}
{"molecule": "COc1cc(C)cc(OC)c1CC=C(C)C", "note": "[1,3-Dimethoxy-5-methyl-2-(3-methylbut-2-en-1-yl)benzene (9)]", "IC50": "7.6 µM"}
{"molecule": "COc1cc(C)cc(OC)c1C/C=C(\\C)CC/C=C(\\C)CCC=C(C)C", "note": "[1,3-Dimethoxy-5-methyl-2-((2E,6E)-3,7,11-trimethyldodeca-2,6,10-trien-1-yl)benzene (11)]", "IC50": "0.52 µM"}
{"molecule": "C=CCc1ccc(OC)cc1OC", "note": "[1-Allyl-2,4-dimethoxybenzene (5)]", "IC50": "31.4 µM and 103 µM"}
{"molecule": "C=CCc1cc(OC)cc(OC)c1", "note": "[1-Allyl-3,5-dimethoxybenzene (2)]", "IC50": "43.2 µM"}
{"molecule": "C=CCc1c(OC)cc(OC)cc1OC", "note": "[2-Allyl-1,3,5-trimethoxybenzene (7)]", "IC50": "83.2 µM"}
{"molecule": "C=CCc1c(OC)cc(C)cc1OC", "note": "[2-Allyl-1,3-dimethoxy-5-methylbenzene (8)]", "IC50": "30.5 µM"}
{"molecule": "C=CCc1c(OC)cccc1OC", "note": "[2-Allyl-1,3-dimethoxybenzene (6)]", "IC50": "53.2 µM"}
{"molecule": "Cc1nc(N2CCN(C)CC2)nc2c1Nc1ccccc1S2", "note": "[4-MMPB]", "IC50": "22.6 µM"}
{"molecule": "COc1cc(C)cc(OC)c1C/C=C(\\C)CCC=C(C)C", "note": "[(E)-2-(3,7-Dimethylocta-2,6-dien-1-yl)-1,3-dimethoxy-5-methylbenzene (10)]", "IC50": "5.3 µM"}
{"molecule": "C=CCc1ccc(OC)c(OC)c1", "note": "[METHYLEUGENOL]", "IC50": "33.3 µM"}
